From the supplement of paper PMC10307832

Legend:
Assay in all cases: relative viability (nuclei count vs DMSO), 5 days (fraction); higher = more cells survive
Veliparib + Navitoclax = compound: C[C@]1(c2nc3c(C(N)=O)cccc3[nH]2)CCCN1 [Veliparib] + CC1(C)CCC(c2ccc(Cl)cc2)=C(CN2CCN(c3ccc(C(=O)NS(=O)(=O)c4ccc(N[C@H](CCN5CCOCC5)CSc5ccccc5)c(S(=O)(=O)C(F)(F)F)c4)cc3)CC2)C1 [Navitoclax] (partner 0.5 µM)
Summary of the method: (§1)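 After 5 days of treatment, lung cancer cells in 1536-well plates were fixed and stained in a single step (final 0.05% Triton X-100, 1% formaldehyde, 1 ug/ml Hoechst) and their nuclei counted on 4× images. Treatment had been applied by pin tool the day after seeding as one drug alone or as a fixed anchor-drug dose with five library-drug doses (not always all listed) in √10 steps. Relative viability is the nuclei count of treated wells divided by that of vehicle wells, and values are medians of duplicate plates.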

[1] = compound: COC1=CC=C(C=C1)CN2C=CC3=C2C=C(C=C3)C(=O)NO + O=C(CCCCCCC(=O)Nc1ccccc1)NO [Vorinostat] (partner 1 µM)
Summary of the method: as §1

[2] = compound: COC1=CC=C(C=C1)CN2C=CC3=C2C=C(C=C3)C(=O)NO + COc1cccc2cc(-c3nc([C@H]4CC[C@H](C(=O)O)CC4)n4ncnc(N)c34)[nH]c12 [OSI-027] (partner 0.5 µM)
Summary of the method: as §1

Veliparib + Linsitinib = compound: C[C@]1(c2nc3c(C(N)=O)cccc3[nH]2)CCCN1 [Veliparib] + C[C@]1(O)C[C@@H](c2nc(-c3ccc4ccc(-c5ccccc5)nc4c3)c3c(N)nccn32)C1 [Linsitinib] (partner 1 µM)
Summary of the method: as §1

Cell Line	relative viability (Veliparib + Navitoclax; first compound 0.02 µM)	relative viability (Veliparib + Navitoclax; first compound 0.06325 µM)	relative viability (Veliparib + Navitoclax; first compound 0.2 µM)	relative viability (Veliparib + Navitoclax; first compound 0.6325 µM)	relative viability (Veliparib + Navitoclax; first compound 2 µM)	relative viability ([1]; first compound 0.253 µM)	relative viability ([1]; first compound 0.8 µM)	relative viability ([1]; first compound 2.53 µM)	relative viability ([1]; first compound 8 µM)	relative viability ([2]; first compound 0.08 µM)	relative viability ([2]; first compound 0.253 µM)	relative viability ([2]; first compound 0.8 µM)	relative viability ([2]; first compound 2.53 µM)	relative viability ([2]; first compound 8 µM)	relative viability (Veliparib + Linsitinib; first compound 0.02 µM)	relative viability (Veliparib + Linsitinib; first compound 0.06325 µM)	relative viability (Veliparib + Linsitinib; first compound 0.2 µM)	relative viability (Veliparib + Linsitinib; first compound 0.6325 µM)	relative viability (Veliparib + Linsitinib; first compound 2 µM)	relative viability ([1]; first compound 0.08 µM)
LOU-NH91	0.539	0.643	0.672	0.689	0.703	0.953	0.906	0.963	0.884	0.761	0.699	0.729	0.749	0.709	0.9	0.932	0.971	0.901	1.02	
LU99A	0.761	0.779	0.832	0.657	0.863	0.504	0.581	0.418	0.352		0.326	0.295	0.259	0.258	0.579	0.61	0.565	0.475	0.525	
LXF-289	0.932	0.948	0.931	0.888	0.968	0.815	0.813	0.797	0.668		0.823	0.896	0.908	0.716	0.93	0.955	0.954	0.922	0.925	
NCI-H23	0.884	0.772	0.828	0.81	0.791	0.649	0.637	0.584	0.461	0.511	0.68	0.582	0.732	0.53	0.775	0.504	0.574	0.505	0.65	0.338
NCI-H322M	1.21	1.04	1.19	1.23	1.2		0.866	0.888	0.845		0.529	0.555	0.397	0.487	1.03	0.864	0.885	0.826	0.972	
NCI-H441	0.701	0.478	0.667	0.501	0.387	0.888	0.902	0.844	0.637	0.715	0.709	0.644	0.621	0.459	0.506	0.589	0.563	0.584	0.541	0.74
NCI-H460		1.02	1.06	1.03	1.12	0.736	0.758	0.783	0.57	0.547	0.721	0.664	0.607	0.595		0.806	0.664	0.527	0.72	0.508
NCI-H520	1.16	1.02	1.17	1.04	1.07	0.775	0.682	0.664	0.712	0.218	0.278	0.329	0.319	0.279	0.984	1.03	0.966	0.922	1.04	0.601
NCI-H596	1.02	0.861	1.06	0.761	0.834	0.536	0.589	0.708	0.778	0.79	0.779	0.768	0.721	0.598	1	1.02	1.07	0.893	0.99	0.587
NCI-H647	1.13	1.14	1.14	1.03	1.1	0.738	0.802	0.702	0.515	0.531	0.752	0.49	0.634	0.492	1.09	1.01	0.989	1.02	1.09	0.457
NCI-H727	0.4	0.492	0.504	0.369	0.467	1.17	1.22	1.25	1.25	0.592	0.576	0.513	0.809	0.534	0.284	0.219	0.253	0.293	0.24	1.13
NCI-H838	1.2	1.1	1.12	1.11	1.2	0.614	0.75	0.771	0.737		0.361	0.41	0.395	0.398	1.07	0.981	1.03	0.888	1.1	0.285
NCI-H1355		0.872	0.9	0.904	0.971	0.695	0.65	0.625	0.589		0.409	0.463	0.457	0.38		0.746	0.832	0.76	0.849	0.223
NCI-H1395		1.05	1.01	1.11	0.899	0.634	0.816	0.84	0.574	0.562	0.579	0.628	0.667	0.549		0.987	0.853	0.745	0.716	
NCI-H1437	1.02	0.997	1.13	1.08	1.05	0.766	0.881	0.891	1.01	0.774	0.907	0.897	0.807	0.907	1.01	1.04	1.02	1.03	1.08	0.684
NCI-H1651	1.04	1.05	1.1	1.01	0.916	0.512	0.498	0.464	0.475	0.682	0.764	0.758	0.622	0.627	0.854	1.01	0.984	0.82	0.805	0.52
NCI-H1666	1.03	0.696	0.932	0.8	1.03	1.09	1.01	1.09	1.04	0.818	0.906	0.873	0.946	0.85	0.93	0.557	0.865	0.671	0.838	0.945

Cell Line	relative viability (Veliparib + Navitoclax; first compound 0.02 µM)	relative viability (Veliparib + Navitoclax; first compound 0.06325 µM)	relative viability (Veliparib + Navitoclax; first compound 0.2 µM)	relative viability (Veliparib + Navitoclax; first compound 0.6325 µM)	relative viability (Veliparib + Navitoclax; first compound 2 µM)	relative viability ([1]; first compound 0.253 µM)	relative viability ([1]; first compound 0.8 µM)	relative viability ([1]; first compound 2.53 µM)	relative viability ([1]; first compound 8 µM)	relative viability ([2]; first compound 0.08 µM)	relative viability ([2]; first compound 0.253 µM)	relative viability ([2]; first compound 0.8 µM)	relative viability ([2]; first compound 2.53 µM)	relative viability ([2]; first compound 8 µM)	relative viability (Veliparib + Linsitinib; first compound 0.02 µM)	relative viability (Veliparib + Linsitinib; first compound 0.06325 µM)	relative viability (Veliparib + Linsitinib; first compound 0.2 µM)	relative viability (Veliparib + Linsitinib; first compound 0.6325 µM)	relative viability (Veliparib + Linsitinib; first compound 2 µM)	relative viability ([1]; first compound 0.08 µM)
NCI-H1734	0.811	0.807	0.76	0.745	0.866	0.882	0.779	0.731	0.658		0.641	0.558	0.608	0.527	0.925	0.85	0.917	0.805	0.928	
NCI-H1755	1.02	0.946	0.939	0.925	0.967	0.884	0.777	0.876	0.725	0.632	0.746	0.732	0.732	0.708	1	0.972	0.972	0.968	0.963	0.694
NCI-H1793	0.435	0.602	0.424	0.376	0.396	0.832	0.801	0.816	0.759		0.296	0.267	0.328	0.248	0.864	0.804	0.956	0.728	0.828	
NCI-H1915	0.766	0.759	0.706	0.703	0.67	0.49	0.48	0.514	0.492	0.564	0.656	0.643	0.599	0.532	1.07	1.07	1.02	0.954	0.995	0.326
NCI-H1944	0.99	0.996	0.929	0.907	0.899	0.677	0.577	0.603	0.399		0.427	0.401	0.407	0.375	1.21	1.17	1.06	1.19	1.12	
NCI-H1975	1.07	1.14	1.22	0.942	0.981	0.779	0.752	0.74	0.701	0.724	0.703	0.742	0.723	0.638	0.933	0.951	1.03	0.88	0.931	0.676
NCI-H1993	0.939	0.898	1.07	0.902	0.959	1.21	0.901	0.842	0.73	0.525	0.626	0.53	0.571	0.521	0.7	0.683	0.738	0.7	0.726	0.527
NCI-H2009	1.22	1.07	1.2	1.1	1.31	0.751	0.722	0.75	0.708	0.647	0.714	0.619	0.618	0.491	1.27	1.17	1.16	1.14	1.22	0.498
NCI-H2023	1.04	0.948	0.922	0.926	0.943	0.631	0.619	0.647	0.654	0.369	0.406	0.418	0.372	0.344	0.712	0.692	0.677	0.538	0.658	0.256
NCI-H2085	1.13	0.984	1.15	0.932	1.11	0.828	0.828	0.828	0.807	0.888	0.754	0.746	0.982	0.731	0.929	0.871	0.854	0.779	0.965	0.835
NCI-H2087	0.883	0.821	0.849	0.863	0.952	0.649	1.26	0.809	0.663	0.626	0.632	0.592	0.561	0.347	1.01	0.903	1.02	0.898	0.999	0.276
NCI-H2126	0.928	0.803	0.861	0.749	0.817	0.815	0.812	0.807	0.702	0.685	0.775	0.696	0.797	0.743	0.715	0.668	0.701	0.661	0.733	0.79
NCI-H2228	1.13	0.953	1.01	0.688	1.05	0.869	0.639	0.431	0.826		0.536	0.594	0.729	0.473	0.552	0.601	0.681	0.572	0.726	0.496
NCI-H2347	0.794	0.775	0.724	0.695	0.729	0.611	0.736	0.796	0.559	0.479	0.433	0.473	0.481	0.402	0.999	0.831	0.912	0.896	0.947	0.502
NCI-H2405		0.734	0.847	0.833	0.69		0.984	1.03	0.896	0.633	0.65	0.638	0.664	0.606		0.938	1.01	0.923	0.885	0.782
NCI-H3122	0.982	0.998	0.998	1	1.01	1.08	1.01	1.17	0.982		1.01	0.945	0.93	0.908	1.04	1.01	0.983	1.04	1.06	0.752
